Measurements from article PMC6644994, “Chemical Ligand Space of Cereblon” (ACS Omega, 2018).
Entries after “also recorded” stand apart in the source; their conditions may differ. Like-named read-outs stand apart in the source and are kept apart here.

What was measured:
[1] = target: MsCI4 (Magnetospirillum gryphiswaldense, UniProt A4TVL0, W36F/W59F); experiment: biochemical; type: binding
[2] = tested on: zebrafish embryos (cereblon-mediated pectoral fin malformation); settings: cited from earlier work
[3] = tested on: zebrafish embryos (cereblon-mediated pectoral fin malformation); experiment: Zebrafish pectoral fin deformity assay
[4] = target: T1, MsCI4 (Magnetospirillum gryphiswaldense, UniProt A4TVL0); experiment: X-ray crystallography of MsCI4·ligand crystals obtained by soaking; type: binding; design: key to binding verified via crystallography (symbol in Table S1): X-tal: binding verified via crystallography; settings: for binding verified via crystallography (in words): MsCI4·thalidomide crystals soaked with solid rolipram
T1 sequence (A4TVL0 1-124): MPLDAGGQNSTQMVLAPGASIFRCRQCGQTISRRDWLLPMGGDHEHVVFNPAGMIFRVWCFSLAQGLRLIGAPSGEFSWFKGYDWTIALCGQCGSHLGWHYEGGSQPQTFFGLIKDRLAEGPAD
From the text: In a next step, we characterized the binding of representative compounds via X-ray crystallography. […] (II) The structures with ethosuximide, hydantoin, 2-thiohydantoin, and thiazolidine-2,4-dione verify that imides with 5-membered rings have the same basic binding mode as 6-membered rings. (III) The binding mode of γ-butyrolactam, δ-valerolactam and rolipram verifies that lactams have a binding mode analogous to imides, with their carbonyl group occupying position d. […] Importantly, in a direct comparison with the crystal structure of the human thalidomide-binding domain, none of the protruding moieties of the effectors is interacting or in contact with any nonconserved amino acid side chain, such that their binding modes are not influenced by species-specific differences (Figure S2).
After 40 h of soaking, these crystals were loop-mounted and flash-cooled in liquid nitrogen. Data were collected at 100 K and a wavelength of 1 Å on a PILATUS 6M-F detector at beamline X10SA of the Swiss Light Source (PSI, Villigen, Switzerland). Diffraction images were indexed, integrated, and scaled using XDS.[34] […] Data collection and refinement statistics are summarized together with PDB accession codes in Table S2. All molecular depictions were prepared using MolScript,[37] BobScript,[38] and Raster3D.[39]

[5] = Table S1, affinity for MsCI4, FRET assay, read-out: Ki
[6] = zebrafish embryos, 400 μM, 75 h post fertilization

Sequence of MsCI4 (Magnetospirillum gryphiswaldense, UniProt A4TVL0, W36F/W59F) (A4TVL0 entry or part of it W36F/W59F): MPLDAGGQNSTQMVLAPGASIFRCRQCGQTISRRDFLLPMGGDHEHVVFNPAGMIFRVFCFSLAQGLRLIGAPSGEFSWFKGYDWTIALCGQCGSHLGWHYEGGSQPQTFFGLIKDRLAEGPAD

With `Cc1c[nH]c(=O)[nH]c1=O` [Thymine, 5-Methylpyrimidine-2,4-dione] as the compound, how does the Ki [1] read?
The Ki was 478 ± 41.6 µM.

And the “binding to MsCI4 in the FRET assay (in words)” value (from here on “binding to MsCI4”) ([1]; FRET assay)?
The value was “very low but measurable affinities”.

For `CCC1(C)NC(=O)NC1=O` (stereo not drawn) [5-Ethyl-5-methyl-hydantoin], which Ki [1] is on record?
Its Ki is greater than 1000 µM.

What about the “binding to MsCI4” value ([1]; FRET assay) of the same compound?
Its value is “no binding was detectable”.

Which results are given for `CC(=O)NCCCCC(N)C(=O)O` (stereo not drawn) [N-ε-Acetyllysine, 2-azaniumyl-6-acetamidohexanoate]?
Ki [1]: > 1000 µM; binding to MsCI4 in the FRET assay (in words) ([1]; FRET assay): could not detect any binding

For `O=c1ccn([C@@H]2O[C@H](CO)[C@@H](O)[C@H]2O)c(=O)[nH]1` [Uridine], which Ki [1] is on record?
The Ki was 13 ± 1.9 µM.

What about the “teratogenic effect on fin formation in zebrafish” value ([2]; zebrafish) of the same compound?
The value was “same effect on fin formation”.

For `CCC1(C)CC(=O)NC1=O` (stereo not drawn) [Ethosuximide, 3-Ethyl-3-methylsuccinimide], which Ki [1] is on record?
Its Ki is 136 ± 11.6 µM.

With `O=C1CCCN1` [γ-Butyrolactam, Pyrrolidin-2-one] as the compound, how does the Ki [1] read?
Its Ki is 57 ± 11.6 µM.

With `CN1CC(=O)NC1=N` [Creatinine, 2-Imino-N-methylhydantoin] as the compound, how does the Ki [1] read?
Its Ki is greater than 1000 µM.

With `O=c1cc[nH]c(=O)[nH]1` [Uracil, Pyrimidine-2,4-dione] as the compound, how does the Ki [1] read?
The Ki was 35 ± 5.1 µM.

For `O=C1CCCCCCN1` [1-Azo-2-Cyclooctanone], which Ki [1, 5] is on record?
Its Ki is greater than 1000 µM.

Which Ki [1] does the source give for `O=c1ccn([C@H]2C[C@H](O)[C@@H](CO)O2)c(=O)[nH]1` [Deoxyuridine] here?
Its Ki is 15 ± 1.6 µM.

For `O=C1CNC(=S)N1` [2-Thiohydantoin], which Ki [1] is on record?
The Ki was 13 ± 1.3 µM.

For `NC(=O)NC(=O)Cc1ccccc1` [Phenylacetylurea], which “binding to MsCI4” value ([1]; FRET assay) is on record?
Its value is “did not bind”.

What about the Ki [1, 5] of the same compound?
Its Ki is greater than 1000 µM.

Which Ki [1] does the source give for `O=C1CNC(=O)N1` [Hydantoin, Imidazolidine-2,4-dione] here?
Its Ki is 43 ± 10.7 µM.

For `COc1ccc(C2CNC(=O)C2)cc1OCCCN1CCC(C(=O)c2ccc(F)cc2)CC1` (stereo not drawn) [Lidanserin], which Ki [1] is on record?
The Ki was 25 ± 8.5 µM.

Which Ki [1] does the source give for `CC(=O)NCCN` [N-(2-Aminoethyl)acetamide] here?
The Ki was greater than 1000 µM.

And the “binding to MsCI4” value ([1]; FRET assay)?
Its value is “could not detect any binding”.

For `O=C1CSC(=O)N1` [Thiazolidine-2,4-dione], which Ki [1] is on record?
Its Ki is 137 ± 15.9 µM.

For `O=C1CCC(N2C(=O)c3ccccc3C2=O)C(=O)N1` (stereo not drawn) [Thalidomide], which “pectoral fin development in zebrafish embryos” value ([2]; zebrafish embryos) is on record?
Its value is “stunted pectoral fins”.

And the pectoral fin phenotype ([3]; zebrafish, 200 μM)?
Its pectoral fin phenotype is “not clearly identifiable”.

With `O=c1[nH]cc([C@@H]2O[C@H](CO)[C@@H](O)[C@H]2O)c(=O)[nH]1` [Pseudouridine] as the compound, how does the Ki [1] read?
Its Ki is greater than 1000 µM.

What about the “binding to MsCI4” value ([1]; FRET assay) of the same compound?
The value was “not detectable; also recorded: no detectable binding”.

For N-(2-Hydroxypropyl)acetamide, which “binding to MsCI4” value ([1]; FRET assay) is on record?
Its value is “could not detect any binding”.

What about the Ki [1, 5] of the same compound?
Its Ki is greater than 1000 µM.

For `O=C1CCC(=O)N1` [Succinimide, Pyrrolidine-2,5-dione], which Ki [1] is on record?
The Ki was 4.3 ± 0.5 µM.

With `Nc1cc[nH]c(=O)n1` [Cytosine] as the compound, how does the Ki [1] read?
The Ki was greater than 1000 µM.

With `O=C1CCCCN1` [δ-Valerolactam, Piperidin-2-one] as the compound, how does the Ki [1] read?
Its Ki is 146 ± 20.3 µM.

With `CC(=O)NC(N)=O` [N-Acetylurea] as the compound, how does the “binding to MsCI4” value ([1]; FRET assay) read?
The value was “detectable”.

And the Ki ([1]; printed in figures and text, FRET assay, read-out: Experimental Ki values for MsCI4)?
The Ki was 522 µM.

For `C1CCNCC1` [Piperidine], which Ki [1] is on record?
The Ki was greater than 1000 µM.

Which Ki [1] does the source give for `O=C1CCNC(=O)N1` [Dihydrouracil, Hexahydropyrimidine-2,4-dione] here?
The Ki was 88 ± 6.8 µM.

Which Ki [1, 5] does the source give for Pyrrol-2,5-dione [Maleimide] here?
The Ki was 35 ± 3.1 µM.

With `O=C1CCC(=O)O1` [Succinic Anhydride] as the compound, how does the Ki [1] read?
The Ki was greater than 1000 µM.

Which results are given for `CC(N)=O` [Acetamide]?
binding to MsCI4 in the FRET assay (in words) ([1]; FRET assay): could not detect any binding; Ki [1, 5]: > 1000 µM

With `S=C1CCCN1` [Pyrrolidine-2-thione] as the compound, how does the Ki [1] read?
The Ki was greater than 1000 µM.

Which results are given for `CC1(C)OC(=O)NC1=O` [5,5-Dimethyl-oxazolidine-2,4-dione]?
Ki [1]: > 1000 µM; binding to MsCI4 in the FRET assay (in words) ([1]; FRET assay): no detectable binding

For `CC1CCC(=O)N1` (stereo not drawn) [5-Methylpyrrolidin-2-one], which Ki [1] is on record?
The Ki was 19 ± 6 µM.

For `CN1CC(=O)NC1=O` [N-Methylhydantoin], which Ki [1] is on record?
Its Ki is 16 ± 1.3 µM.

For `COc1ccc(C2CNC(=O)C2)cc1OC1CCCC1` (stereo not drawn) [Rolipram], which “binding verified via crystallography (in words)” value [4] is on record?
The value was “binding was confirmed via crystallography”.

And the “binding verified via crystallography (in words)” value ([4]; listed as rolipram)?
Its value is “could verify its binding via crystallography; also recorded: verified by crystallography”.

And the “binding verified via crystallography (symbol in Table S1)” value ([4]; Table S1)?
The value was “X-tal”.

Which Ki [1, 5] does the source give for `C1CCNC1` [Pyrrolidine] here?
The Ki was greater than 1000 µM.

Which Ki [1] does the source give for `CCC1(c2ccc(N)cc2)CCC(=O)NC1=O` (stereo not drawn) [Aminoglutethimide] here?
The Ki was 39 ± 3.8 µM.

With `O=C1CCN1` [Azetidin-2-one] as the compound, how does the Ki [1, 5] read?
The Ki was 77 ± 11 µM.

Which results are given for `O=C1CCCCCN1` [ε-Caprolactam]?
Ki [1]: > 1000 µM; binding to MsCI4 in the FRET assay (in words) ([1]; FRET assay): no detectable binding

With `O=C1CCCC(=O)O1` [Glutaric Anhydride] as the compound, how does the Ki [1] read?
The Ki was greater than 1000 µM.

For `O=C1CCCO1` [γ-Butyrolactone], which Ki [1] is on record?
The Ki was greater than 1000 µM.

For `O=C1CCCC(=O)N1` [Glutarimide, Piperidine-2,6-dione], which “effect on pectoral fin deformity of injecting zcrbnYW/AA mRNA (thalidomide-insensitive cereblon mutant)” value [3, 6] is on record?
Its value is “alleviated”.

What about the “pectoral fin deformity / teratogenic effect” value [3, 6] of the same compound?
Its value is “strongest effect; also recorded: cause developmental defects”.

Which Ki [1] does the source give for `C[C@@H]1C[C@@H]([C@H](O)CC2CC(=O)NC(=O)C2)C(=O)[C@@H](C)C1` [Cycloheximide] here?
The Ki was greater than 1000 µM.

And the “binding to MsCI4” value ([1]; FRET assay)?
The value was “abolished binding”.

What does the source list for `O=C1CC(=O)NC(=O)N1` [Barbiturate]?
Ki [1]: > 1000 µM; binding to MsCI4 in the FRET assay (in words) ([1]; FRET assay): abolished binding; pectoral fin deformity / teratogenic effect [3, 6]: no effect; also recorded: does not cause any effects

With `Cc1cn([C@H]2C[C@H](O)[C@@H](CO)O2)c(=O)[nH]c1=O` [Thymidine] as the compound, how does the Ki [1] read?
Its Ki is 204 ± 34.5 µM.

What about the “binding to MsCI4” value ([1]; FRET assay) of the same compound?
Its value is “very low but measurable affinities”.
